Values quoted from earlier work in US20110171124A1, “In situ methods for monitoring the EMT status of tumor cells in vivo” (OSI Pharmaceuticals, Inc., priority 2009, published 2011).

System: NSCLC
Details: phase III, monotherapy, advanced treatment-refractory NSCLC patients

C#Cc1cccc(Nc2ncnc3cc(OCCOC)c(OCCOC)cc23)c1 [erlotinib, [6,7-bis(2-methoxyethoxy)-4-quinazolin-4-yl]-(3-ethynylphenyl)amine]
disease progression: delayed disease progression
survival: significantly prolonged survival
worsening of lung cancer-related symptoms: delayed worsening of lung cancer-related symptoms
